Test results: PMC12040169 (PLOS Biology, 2025)

Assay: in vitro
Settings: human, hela cells, % viability

SMILES	viability at 28.5 h, 10 µM [%]
COc1ccc(N2CCN(c3cc(-c4cccc(NC(C)=O)c4)ncn3)CC2)cc1OC [CBK091029]	96.4
COc1ccc(Nc2cc(-c3cccc(N)c3)ncn2)c(C)c1 [CBK091035]	97.1
COc1ccc(Nc2cc(-c3cc4ccccc4o3)ncn2)c(C)c1 [CBK091040]	87.7
COc1ccc(Nc2cc(-c3ccc(SC)cc3)ncn2)c(C)c1 [CBK091042]	89.2
CC(=O)c1ccc(-c2cc(Nc3ccc(O)cc3C)ncn2)s1 [CBK091052]	115
Cc1cc(O)ccc1Nc1cc(-c2ccc3c(c2)OCO3)ncn1 [CBK091053]	92.6
Cc1cc(O)ccc1Nc1cc(-c2cc3ccccc3s2)ncn1 [CBK091057]	87
O=C(CN1CCN(c2cc(-c3ccsc3)ncn2)CC1)N1CCCC1 [CBK091074]	99.9
FC(F)(F)c1cc(-c2cc(N3CCN(c4ccccn4)CC3)ncn2)cc(C(F)(F)F)c1 [CBK091082]	94.5
Clc1ccc(-c2cc(N3CCN(c4ccccn4)CC3)ncn2)cc1 [CBK091085]	112
CC(C)Cc1ccc(-c2cc(NCCc3ccccn3)ncn2)cc1 [CBK091088]	99.6
Nc1ccc(C(=O)Nc2ccc(Nc3cc(-c4ccco4)ncn3)cc2)cc1 [CBK091099]	96.5
CC(=O)Nc1ccc(-c2cc(Nc3ccc(NC(=O)c4ccc(N)cc4)cc3)ncn2)cc1 [CBK091103]	97
CC(C)(C)OC(=O)NCc1ccc(-c2cc(N3CCN(C(=O)c4ccco4)CC3)ncn2)cc1 [CBK091107]	98.3
O=C(c1ccco1)N1CCN(c2cc(-c3cc4ccccc4o3)ncn2)CC1 [CBK091114]	102
CN(C(=O)CN1CCN(c2cc(-c3cc(C(F)(F)F)cc(C(F)(F)F)c3)ncn2)CC1)c1ccccc1 [CBK091125]	103
CN(C(=O)CN1CCN(c2cc(-c3cc4ccccc4o3)ncn2)CC1)c1ccccc1 [CBK091128]	94
COc1ccccc1-c1cc(N2CCN(CC(=O)N(C)c3ccccc3)CC2)ncn1 [CBK091136]	99
CC(C)(C)OC(=O)Nc1ccc(Nc2cc(-c3ccc(F)c(F)c3)ncn2)cc1 [CBK091143]	90.1
Cc1ccc(Nc2cc(-c3cccc(N)c3)ncn2)cc1NS(C)(=O)=O [CBK091145]	99.1
Cc1ccc(Nc2cc(-c3cccnc3)ncn2)cc1NS(C)(=O)=O [CBK091147]	91.2

SMILES	viability at 28.5 h, 10 µM [%]
Cc1ccc(Nc2cc(-c3cc4ccccc4o3)ncn2)cc1NS(C)(=O)=O [CBK091148]	93.6
Cc1ccc(Nc2cc(-c3cccc4cccnc34)ncn2)cc1NS(C)(=O)=O [CBK091152]	92.4
CN(C)c1ccc(-c2cc(N3CCN(S(=O)(=O)c4ccc(Cl)cc4)CC3)ncn2)cc1 [CBK091158]	93.5
O=S(=O)(c1ccc(Cl)cc1)N1CCN(c2cc(-c3ccco3)ncn2)CC1 [CBK091161]	111
c1ccc(-c2cccc(-c3cc(N4CCN(CCN5CCCC5)CC4)ncn3)c2)cc1 [CBK091164]	99.7
c1ccc(-c2ccc(-c3cc(N4CCN(CCN5CCCC5)CC4)ncn3)cc2)cc1 [CBK091165]	99
c1ccc2sc(-c3cc(N4CCN(CCN5CCCC5)CC4)ncn3)cc2c1 [CBK091172]	89.3
COc1ccc(-c2cc(N3CCN(CCN4CCCC4)CC3)ncn2)cc1OC [CBK091173]	94.5
COc1cc(CNc2cc(-c3ccc(N4CCOCC4)cc3)ncn2)cc(OC)c1OC [CBK091174]	93.9
COc1cc(CNc2cc(-c3cccc4oc5ccccc5c34)ncn2)cc(OC)c1OC [CBK091177]	90.3
COc1cc(CNc2cc(-c3cccc4cccnc34)ncn2)cc(OC)c1OC [CBK091179]	76.6
Nc1cccc(-c2cc(Nc3ccc(C4CCCCC4)cc3)ncn2)c1 [CBK091191]	88.8
CCN(CC)CCN1CCN(c2cc(-c3cccc4ccccc34)ncn2)CC1 [CBK091196]	99.9
CCN(CC)CCN1CCN(c2cc(-c3ccc(SC)cc3)ncn2)CC1 [CBK091203]	93.3
c1ccc(CCCNc2ncc(-c3ccc(N4CCOCC4)cc3)n3ccnc23)cc1 [CBK091223]	112
CN1CCN(c2ncc(-c3ccc(N4CCOCC4)cc3)n3ccnc23)CC1 [CBK091226]	103
COc1ccccc1-c1cnc(Nc2ccc(N3CCOCC3)cc2)c2nccn12 [CBK091230]	99.9
CC(=O)Nc1cccc(-c2cnc(Nc3ccc(N4CCOCC4)cc3)c3nccn23)c1 [CBK091235]	99.9
CN(C)C(=O)c1cccc(-c2cnc(N3CCOCC3)c3nccn23)c1 [CBK091261]	101
CC(C)CNc1ncc(-c2ccc(N3CCOCC3)cc2)n2ccnc12 [CBK091273]	101
CN(Cc1ccccc1)c1ncc(-c2ccc(N3CCOCC3)cc2)n2ccnc12 [CBK091275]	99.7
